These results are taken from patent publication US4730054A, “Imidazole thieno-benzothiepins” (SPOFA, Spojene Podinky Pro Zdravotnickou Vyrobu, priority 1985, dated 1988).

Converted amounts (≈) assume the structure as drawn.

Data set [1] relates to T mentagrophytes. The data set can be described thus: MIC by standard dilution method in a liquid nutrient medium. The class given is cell-based. The settings on record: Trichophyton mentagrophytes, inoculum 10^6 CFU/ml, read-out: Antimycotic Activity (MIC). An excerpt:
(§1) For example, the new compounds were compared in vitro with the known antimycotic agents clotrimazole, miconazole and ketoconazole, in order to determine their minimum inhibitive concentrations (MICs). See, Fromtling, R. A., "Imidazoles as medically important antifungal agents: an overview," 20 Drugs of Today No. 7, 328-331 (1984); Burgess & Bodey, "Clotrimazole," 2 Antimicrobial Agents and Chemotherapy No. 6, 423-6 (1972). […] The test innoculum size was 10^6 CFU/ml for Aspergillus niger and Trichophyton mentagrophytes and 10^4 CFU/ml for Saccharomuces pastorianus and Candida albicans, where CFU is the standard abbreviation for microbial cell counts.

Data set [2] relates to C albicans. The description is as above. The class given is cell-based. The conditions noted are these: Candida albicans, inoculum 10^4 CFU/ml, read-out: Antimycotic Activity (MIC).
Source text: as §1

In data set [3] the test system is A niger. Described as above. Type of data set: cell-based. The settings on record: Aspergillus niger, inoculum 10^6 CFU/ml, read-out: Antimycotic Activity (MIC).
Source text: as §1

In data set [4] the test system is S pastorianus. The data set is described as above. The class given is cell-based, Saccharomuces pastorianus. The settings on record: inoculum 10^4 CFU/ml, read-out: Antimycotic Activity (MIC).
Source text: as §1

Data set [5] has as its system Candida albicans. The data set can be described thus: Vaginal candidosis induced experimentally in mice, intravaginal administration. Type of data set: in vivo, Candida albicans (in mice). The conditions noted are these: for inhibition of the test culture: ten days. Here is the method: The in vivo evaluation of antimycotic activity was performed using a model of vaginal candidosis induced experimentally in mice by Candida albicans. The test substances were administered intravaginally over a period of ten days in the form of homogenized suspensions of appropriately chosen concentrations in a 0.5% aqueous hydroxyethylcellulose solution. The results were evaluated both immediately upon administration and after one and two weeks.

Data set [6] deals with clinical strain isolates of pathogenic molds (a total of 16). The data set can be described thus: Sensitivity of clinical mold strain isolates, dilution method on Sabouraud agar. Type of data set: cell-based. The settings on record: 16 clinical mold strains. As for the experimental part:
(§2) The sensitivity of a larger number of clinical strain isolates of pathogenic molds (a total of 16) as well as yeasts and related microorganisms (a total of 21) when exposed to the inventive compounds was determined using the dilution method on Sabouraud agar. Thus, the experimental MIC values for mold strains exposed to Compound Ia were from 0.7 to 100 mg/l.

Data set [7] deals with pathogenic molds as well as yeasts and related microorganisms. The data set can be described thus: Effect of addition of serum or blood to the agar test plate on antimycotic effect, Sabouraud agar. The class given is cell-based. The conditions noted are these: for effect of addition of serum or blood to the agar test plate: in comparison to the protein-free agar culture values; for potency in the presence of biological protein substances: such as blood constituents. Here is the method:
as §2

Data set [8] concerns about forty pathogenic yeast and mold strains. The data set is described as follows: MIC in dilution tests on Sabouraud agar, about forty pathogenic yeast and mold strains. Type of data set: cell-based. As for the experimental part:
The sensitivity of a larger number of clinical strain isolates of pathogenic molds (a total of 16) as well as yeasts and related microorganisms (a total of 21) when exposed to the inventive compounds was determined using the dilution method on Sabouraud agar.

A short description of data set [9]: Chronic (one month) toxicity on intravaginal administration, rat. The class given is in vivo.
A short description of data set [10]: Standard test for teratogenity. The settings on record: standard tests.
Data set [11] is described as follows: Standard test for cancerogenity. The conditions noted are these: standard tests.
The test system of data set [12] is Aspergillus strains. The data set can be described thus: Antimycotic activity against Aspergillus strains compared with clotrimazole and miconazole. The class given is cell-based. As for the experimental part: (§3) For example, the new compounds were compared in vitro with the known antimycotic agents clotrimazole, miconazole and ketoconazole, in order to determine their minimum inhibitive concentrations (MICs). See, Fromtling, R. A., "Imidazoles as medically important antifungal agents: an overview," 20 Drugs of Today No. 7, 328-331 (1984); Burgess & Bodey, "Clotrimazole," 2 Antimicrobial Agents and Chemotherapy No. 6, 423-6 (1972). MIC values were determined by the standard dilution method in a liquid nutrient medium, primarily with the following yeast and mold species typically used in preliminary antimycotic screening: Saccharomuces pastorianus, Candida albicans, Trichophyton mentagrophytes, and Aspergillus niger. The test innoculum size was 10^6 CFU/ml for Aspergillus niger and Trichophyton mentagrophytes and 10^4 CFU/ml for Saccharomuces pastorianus and Candida albicans, where CFU is the standard abbreviation for microbial cell counts.

A short description of data set [13]: Standard test for foetal damage. The conditions noted are these: standard tests.
The nature of data set [14]: Acute toxicity LD50 in rats p.o. The conditions noted are these: for LD50: rat, in vivo, po.
The nature of data set [15]: Chronic (one month) toxicity on intravaginal administration, dog. Type of data set: in vivo.
The nature of data set [16]: Standard test for mutagenity. The settings on record: standard tests.
The test system of data set [17] is typical inducers of dermal mycoses. The data set is described as follows: Antimycotic activity against typical inducers of dermal mycoses compared with clotrimazole and miconazole. Type of data set: cell-based. Here is the method:
as §3

The nature of data set [18]: Standard test for dermal irritation. The settings on record: standard tests. The class given is in vivo.
A short description of data set [19]: Standard test for vaginal irritation. The class given is in vivo. The settings on record: standard tests.

By MIC is commonly meant the lowest concentration that inhibits growth of the organism. As for `Clc1ccc(COC(Cn2ccnc2)c2ccc(Cl)cc2Cl)c(Cl)c1` (centres unmarked) [Miconazole], the MIC in data set [1] is 0.03 µg/mL (≈ 0.0721 µM); in [2], 0.7 µg/mL (≈ 1.68 µM); in data set [3], 1.5 µg/mL (≈ 3.6 µM); in data set [4] it was 6.2 µg/mL (≈ 14.9 µM).
As for `CC(=O)N1CCN(c2ccc(OCC3COC(Cn4ccnc4)(c4ccc(Cl)cc4Cl)O3)cc2)CC1` (centres unmarked) [Ketoconazole], the MIC in data set [1] was found to be 0.7 µg/mL (≈ 1.32 µM); in data set [2] it was 0.03 µg/mL (≈ 0.0565 µM); in data set [3], 12.5 µg/mL (≈ 23.5 µM); in data set [4] it was 50 µg/mL (≈ 94.1 µM).
In the case of `c1ccc2c(c1)CSc1sccc1C2n1ccnc1` (centres unmarked) [Compound Ia, 4-(1-imidazolyl)-4,9-dihydrothieno(2,3-c)-2-benzothiepin], the MIC was 1.5 µg/mL (≈ 5.27 µM) in [1]; 25 µg/mL (≈ 87.9 µM) in data set [2]; 0.7 µg/mL (≈ 2.46 µM) in data set [3]; 0.7 to 100 µg/mL (≈ 2.46 to 352 µM) in data set [6]; 25 µg/mL (≈ 87.9 µM) in [4]. For the same compound, the “prophylactic (preventative) effect” value in [5] (intravaginal, concentration of 7.5%) was “significant prophylactic (preventative) effect”. Further, the “inhibition of the test culture” value in data set [5] (intravaginal, concentration of 7.5%, therapy starting 24 hours prior to infection) is “complete inhibition”; in data set [5] (intravaginal, concentration of 7.5%, therapy starting simultaneously with infection) it was “complete inhibition”. Also, the “results when therapy was delayed” value in data set [5] (intravaginal, therapy delayed until 24 hours after infection) was “somewhat less favorable”. The “effect of addition of serum or blood to the agar test plate” value (from here on “effect of addition of serum or blood”) in data set [7] was “doubled the effect”. Also, the “potency in the presence of biological protein substances” value in data set [7] is reported as “actually improved”.
In the case of `Clc1ccccc1C(c1ccccc1)(c1ccccc1)n1ccnc1` [Clotrimazole], the MIC in data set [1] was 0.03 µg/mL (≈ 0.087 µM); in data set [2], 0.7 µg/mL (≈ 2.03 µM); in data set [3] it was 3.1 µg/mL (≈ 8.99 µM); in data set [6] it was 0.01 to 1.5 µg/mL (≈ 0.029 to 4.35 µM); in data set [4], 3.1 µg/mL (≈ 8.99 µM). Besides, the “effect of addition of serum or blood” value in [7] is listed as “diminished the effect of clotrimazole about one third”.
The term LD50 denotes the dose at which mortality reaches 50%. Read a high LD50 as lower toxicity. With `Clc1ccc2c(c1)C(n1ccnc1)c1ccsc1SC2` (centres unmarked) [Compound Ib, 6-chloro-4-(1-imidazolyl)-4,9-dihydrothieno(2,3-c)-2-benzothiepin], the MIC in data set [1] is 0.03 µg/mL (≈ 0.0941 µM); in [2], 3.1 µg/mL (≈ 9.72 µM); in [3], 0.03 µg/mL (≈ 0.0941 µM); in data set [6], 0.01 to 1.5 µg/mL (≈ 0.0314 to 4.7 µM); in data set [4] it was 12.5 µg/mL (≈ 39.2 µM). Further, in data set [8], the “Minimum MIC values” lay within 0.01 to 25 µg/mL. Also, in [5] (topical application), the “therapeutic effect on vaginal Candida albicans infections” value is recorded as “beneficial therapeutic effect”. The “chronic (one month) toxicity” value in [9] and in [15] was “negative” throughout. The teratogenity entry in data set [10] was “negative”. Besides, the “effect of addition of serum or blood” value in data set [7] is recorded as “had no effect”. Besides, the “potency in the presence of biological protein substances” value in [7] was “not diminished”. In addition, the cancerogenity result in data set [11] was “negative”. Further, the “activity against Aspergillus strains” value in data set [12] is “notably increased activity”. Moreover, the foetal damage result in [13] is “negative”. Further, the LD50 in [14] (LD50, female rats) came to 1120 mg/kg; in data set [14] (LD50, male rats), 1570 mg/kg. Besides, the toxicity result in data set [14] (rats) is listed as “only slightly toxic”. Besides, the mutagenity result in data set [16] was “negative”. Besides, the “level of activity against typical inducers of dermal mycoses” value in data set [17] is reported as “similarly potent level of activity”. The dermal irritation result in [18] is “negative”. In data set [19], the vaginal irritation entry is “negative”.
